Assay results reported in patent publication US6645918B1, “N-([1,2,4]triazoloazinyl)thiophenesulfonamide compounds and their use as herbicides” (Dow AgroSciences LLC, priority 2000, dated 2003).

Experiments:
Type in all cases: in vivo
[1] = system: wild buckwheat (Polygonum convolvulus); experiment: Postemergence herbicidal activity, wild buckwheat; conditions: 7.8 ppm, foliar spray, visual after 2 weeks; 0 no injury, 100 complete kill
Experimental: (§1) Seeds of the desired test plant species were planted in Grace-Sierra MetroMix® 306 planting mixture, which typically has a pH of 6.0 to 6.8 and an organic matter content of about 30 percent, in plastic pots with a surface area of 64 square centimeters. When required to ensure good germination and healthy plants, a fungicide treatment and/or other chemical or physical treatment was applied. The plants were grown for 7-21 days in a greenhouse with an approximately 15 hr photoperiod which was maintained at about 23-29° C. during the day and 22-28° C. during the night. Nutrients and water were added on a regular basis and supplemental lighting was provided with overhead metal halide 1000 Watt lamps as necessary. The plants were employed for testing when they reached the first or second true leaf stage. A weighed amount of each test compound, determined by the highest rate to be tested, was placed in a 20 mL glass vial and was dissolved in 4 mL of a 97:3 v/v (volume/volume) mixture of acetone and dimethyl sulfoxide to obtain concentrated stock solutions. […] The concentrated stock solutions obtained were diluted with an aqueous mixture containing acetone, water, iso-propyl alcohol, dimethyl sulfoxide, Atplus 411F crop oil concentrate, and Triton X-155 surfactant (methylenebisdiamyl phenoxy polyethoxy ethanol) in a 48.5:39:10:1.5:1.0:0.02 v/v ratio to obtain spray solutions of known concentration. The solutions containing the highest concentration to be tested were prepared by diluting 2 mL aliquots of the stock solution with 13 mL of the mixture and lower concentrations were prepared by dilution of appropriate smaller portions of the stock solution. Approximately 1.5 mL aliquots of each solution of known concentration were sprayed evenly onto each of the test plant pots using a DeVilbiss atomizer driven by compressed air pressure of 2 to 4 psi (140 to 280 kilopascals) to obtain thorough coverage of each plant. Control plants were sprayed in the same manner with the aqueous mixture. In this test an application rate of 1 ppm results in the application of approximately 1 g/ha. The treated plants and control plants were placed in a greenhouse as described above and watered by sub-irrigation to prevent wash-off of the test compounds. After 2 weeks the condition of the test plants as compared with that of the untreated plants was determined visually and scored on a scale of 0 to 100 percent where 0 corresponds to no injury and 100 corresponds to complete kill.

[2] = system: giant foxtail (Setaria faberi); experiment: Preemergence herbicidal activity, giant foxtail; conditions: soil spray, visual after 3 weeks, 0 no injury, 100 complete kill or no germination
Experimental: (§2) The soil matrix was contained in plastic pots with a surface area of 161 square centimeters. When required to ensure good germination and healthy plants, a fungicide treatment and/or other chemical or physical treatment was applied. A weighed amount, determined by the highest rate to be tested, of each test compound was placed in a 20 mL glass vial and was dissolved in 8 mL of a 97:3 v/v (volume/volume) mixture of acetone and dimethyl sulfoxide to obtain concentrated stock solutions. […] The stock solutions obtained were diluted with a 99.9:0.1 mixture of water and Tween® 155 surfactant (ethoxylated sorbitan fatty acid ester) to obtain application solutions of known concentration. The solutions containing the highest concentration to be tested were prepared by diluting 4 mL aliquots of the stock solution with 8.5 mL of the mixture and lower concentrations were prepared by dilution of appropriate smaller portions of the stock solution. A 2.5 mL aliquot of each solution of known concentration was sprayed evenly onto the soil of each seeded pot using a Cornwall 5.0 mL glass syringe fitted with a TeeJet TN-3 hollow cone nozzle to obtain thorough coverage of the soil in each pot. Control pots were sprayed in the same manner with the aqueous mixture. A highest application rate of 4.48 kg/ha is achieved when 50 mg of test compound is employed. The treated pots and control pots were placed in a greenhouse with an approximately 15 hr photoperiod which was maintained at about 23-29° C. during the day and 22-28° C. during the night. Nutrients and water were added on a regular basis and supplemental lighting was provided with overhead metal halide 1000 Watt lamps as necessary. The water was added by top-irrigation. After 3 weeks the condition of the test plants that germinated and grew as compared with that of the untreated plants that germinated and grew was determined visually and scored on a scale of 0 to 100 percent where 0 corresponds to no injury and 100 corresponds to complete kill or no germination.

[3] = system: crabgrass (Digitaria sanguinalis); experiment: Preemergence herbicidal activity, crabgrass; conditions: soil spray, visual after 3 weeks, 0 no injury, 100 complete kill or no germination
Experimental: as §2

[4] = system: velvetleaf (Abutilion theophrasti); experiment: Postemergence herbicidal activity, velvetleaf; conditions: 7.8 ppm, foliar spray, visual after 2 weeks; 0 no injury, 100 complete kill
Experimental: as §1

[5] = system: pigweed (Amaranthus retroflexus); experiment: Postemergence herbicidal activity, pigweed; conditions: 7.8 ppm, foliar spray, visual after 2 weeks; 0 no injury, 100 complete kill
Experimental: as §1

[6] = system: Rox orange sorghum (Sorghum bicolor); experiment: Postemergence herbicidal activity, Rox orange sorghum; conditions: 7.8 ppm, foliar spray, visual after 2 weeks; 0 no injury, 100 complete kill
Experimental: as §1

wild oats (Avena fatua) [7] = experiment: Preemergence herbicidal activity, wild oats; conditions: soil spray, visual after 3 weeks, 0 no injury, 100 complete kill or no germination
Experimental: as §2

[8] = system: chickweed (Stellaria media); experiment: Postemergence herbicidal activity, chickweed; conditions: 7.8 ppm, foliar spray, visual after 2 weeks; 0 no injury, 100 complete kill
Experimental: as §1

[9] = system: Rox orange sorghum (Sorghum bicolor); experiment: Preemergence herbicidal activity, Rox orange sorghum; conditions: soil spray, visual after 3 weeks, 0 no injury, 100 complete kill or no germination
Experimental: as §2

[10] = system: velvetleaf (Abutilion theophrasti); experiment: Preemergence herbicidal activity, velvetleaf; conditions: soil spray, visual after 3 weeks, 0 no injury, 100 complete kill or no germination
Experimental: as §2

wild oats (Avena fatua) [11] = experiment: Postemergence herbicidal activity, wild oats; conditions: 7.8 ppm, foliar spray, visual after 2 weeks; 0 no injury, 100 complete kill
Experimental: as §1

[12] = system: morningglory (Ipomoea hederacea); experiment: Postemergence herbicidal activity, morningglory; conditions: 7.8 ppm, foliar spray, visual after 2 weeks; 0 no injury, 100 complete kill
Experimental: as §1

[13] = system: cocklebur (Xanthium strumarium); experiment: Postemergence herbicidal activity, cocklebur; conditions: 7.8 ppm, foliar spray, visual after 2 weeks; 0 no injury, 100 complete kill
Experimental: as §1

[14] = system: pigweed (Amaranthus retroflexus); experiment: Preemergence herbicidal activity, pigweed; conditions: soil spray, visual after 3 weeks, 0 no injury, 100 complete kill or no germination
Experimental: as §2

[15] = system: giant foxtail (Setaria faberi); experiment: Postemergence herbicidal activity, giant foxtail; conditions: 7.8 ppm, foliar spray, visual after 2 weeks; 0 no injury, 100 complete kill
Experimental: as §1

[16] = system: blackgrass (Alopecurus myosuroides); experiment: Preemergence herbicidal activity, blackgrass; conditions: soil spray, visual after 3 weeks, 0 no injury, 100 complete kill or no germination
Experimental: as §2

[17] = system: wild poinsettia (Euphorbia heterophylla); experiment: Preemergence herbicidal activity, wild poinsettia; conditions: soil spray, visual after 3 weeks, 0 no injury, 100 complete kill or no germination
Experimental: as §2

[18] = system: lambsquarters (Chenopodium album); experiment: Postemergence herbicidal activity, lambsquarters; conditions: 7.8 ppm, foliar spray, visual after 2 weeks; 0 no injury, 100 complete kill
Experimental: as §1

[19] = system: morningglory (Ipomoea hederacea); experiment: Preemergence herbicidal activity, morningglory; conditions: soil spray, visual after 3 weeks, 0 no injury, 100 complete kill or no germination
Experimental: as §2

[20] = system: lambsquarters (Chenopodium album); experiment: Preemergence herbicidal activity, lambsquarters; conditions: soil spray, visual after 3 weeks, 0 no injury, 100 complete kill or no germination
Experimental: as §2

[21] = system: blackgrass (Alopecurus myosuroides); experiment: Postemergence herbicidal activity, blackgrass; conditions: 7.8 ppm, foliar spray, visual after 2 weeks; 0 no injury, 100 complete kill
Experimental: as §1

[22] = system: barnyardgrass (Echinochloa crus-galli); experiment: Preemergence herbicidal activity, barnyardgrass; conditions: soil spray, visual after 3 weeks, 0 no injury, 100 complete kill or no germination
Experimental: as §2

viola (Viola tricolor) = experiment: Postemergence herbicidal activity, viola; conditions: 7.8 ppm, foliar spray, visual after 2 weeks; 0 no injury, 100 complete kill
Experimental: as §1

[23] = system: cocklebur (Xanthium strumarium); experiment: Preemergence herbicidal activity, cocklebur; conditions: 4.4 g/Ha, soil spray, visual after 3 weeks; 0 no injury, 100 complete kill or no germination
Experimental: as §2

COc1ccsc1S(=O)(=O)Nc1nc2c(Cl)cnc(OC)n2n1 [Compound 2]
POLCO postemergence injury score 0-100 [1]: 90% | SETFA preemergence injury score 0-100 ([2]; 8.8 g/Ha): 100% | DIGSA preemergence injury score 0-100 ([3]; 8.8 g/Ha): 100% | ABUTH postemergence injury score 0-100 [4]: 95% | AMARE postemergence injury score 0-100 [5]: 98% | SORBI postemergence injury score 0-100 [6]: 98% | AVEFA preemergence injury score 0-100 (wild oats (Avena fatua) [7]; 8.8 g/Ha): 100% | STEME postemergence injury score 0-100 [8]: 98% | SORBI preemergence injury score 0-100 ([9]; 8.8 g/Ha): 100% | ABUTH preemergence injury score 0-100 ([10]; 8.8 g/Ha): 75% | AVEFA postemergence injury score 0-100 (wild oats (Avena fatua) [11]): 90% | IPOHE postemergence injury score 0-100 [12]: 85% | XANST postemergence injury score 0-100 [13]: 60% | AMARE preemergence injury score 0-100 ([14]; 8.8 g/Ha): 95% | SETFA postemergence injury score 0-100 [15]: 98% | ALOMY preemergence injury score 0-100 ([16]; 8.8 g/Ha): 95% | EPHHL preemergence injury score 0-100 ([17]; 8.8 g/Ha): 90% | CHEAL postemergence injury score 0-100 [18]: 90% | IPOHE preemergence injury score 0-100 ([19]; 8.8 g/Ha): 80% | CHEAL preemergence injury score 0-100 ([20]; 8.8 g/Ha): 98% | ALOMY postemergence injury score 0-100 [21]: 70% | ECHCG preemergence injury score 0-100 ([22]; 8.8 g/Ha): 75% | VIOTR postemergence injury score 0-100 (viola (Viola tricolor)): 95%

CCOc1cscc1S(=O)(=O)Nc1nc2c(OC)cnc(OC)n2n1 [Compound 13]
SETFA preemergence injury score 0-100 ([2]; 4.4 g/Ha): 100% | DIGSA preemergence injury score 0-100 ([3]; 4.4 g/Ha): 100% | ABUTH postemergence injury score 0-100 [4]: 95% | AMARE postemergence injury score 0-100 [5]: 100% | SORBI postemergence injury score 0-100 [6]: 95% | AVEFA preemergence injury score 0-100 (wild oats (Avena fatua) [7]; 4.4 g/Ha): 100% | STEME postemergence injury score 0-100 [8]: 95% | SORBI preemergence injury score 0-100 ([9]; 4.4 g/Ha): 100% | ABUTH preemergence injury score 0-100 ([10]; 4.4 g/Ha): 80% | AVEFA postemergence injury score 0-100 (wild oats (Avena fatua) [11]): 85% | IPOHE postemergence injury score 0-100 [12]: 75% | XANST preemergence injury score 0-100 [23]: 80% | XANST postemergence injury score 0-100 [13]: 95% | AMARE preemergence injury score 0-100 ([14]; 4.4 g/Ha): 90% | SETFA postemergence injury score 0-100 [15]: 95% | ALOMY preemergence injury score 0-100 ([16]; 4.4 g/Ha): 100% | EPHHL preemergence injury score 0-100 ([17]; 4.4 g/Ha): 100% | CHEAL postemergence injury score 0-100 [18]: 90% | IPOHE preemergence injury score 0-100 ([19]; 4.4 g/Ha): 90% | CHEAL preemergence injury score 0-100 ([20]; 4.4 g/Ha): 100% | ALOMY postemergence injury score 0-100 [21]: 80% | ECHCG preemergence injury score 0-100 ([22]; 4.4 g/Ha): 100% | VIOTR postemergence injury score 0-100 (viola (Viola tricolor)): 75%
